# “And” between values parts separate entries of the source, which are not always exact repeats. Identical values can stand only once.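 96-well plates; 48 h exposure; 5 concentrations. Endpoints by linear interpolation between flanking doses. Not reached: highest tested concentration assigned. GI50 is the concentration that inhibits growth by half. At the TGI there is no net growth.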
# How the values were obtained:
# Assay in all cases: DTP human tumour cell line panel, 48 h
# SF-539 CNS = tested on: SF-539 CNS
# CAKI-1 renal = tested on: CAKI-1 renal
# OVCAR-8 ovarian = tested on: OVCAR-8 ovarian
# HCT-116 colon = tested on: HCT-116 colon
# UACC-62 melanoma = tested on: UACC-62 melanoma
# KM12 colon = tested on: KM12 colon
# A549 NSCLC = tested on: A549 NSCLC
# T-47D breast = tested on: T-47D breast
# ACHN renal = tested on: ACHN renal
# NCI-H460 lung = tested on: NCI-H460 lung
SMILES,GI50 (SF-539 CNS),TGI (SF-539 CNS),GI50 (CAKI-1 renal),TGI (CAKI-1 renal),GI50 (OVCAR-8 ovarian),TGI (OVCAR-8 ovarian) [µM],GI50 (HCT-116 colon),TGI (HCT-116 colon) [µM],GI50 (UACC-62 melanoma),TGI (UACC-62 melanoma),GI50 (KM12 colon),TGI (KM12 colon) [µM],GI50 (A549 NSCLC),TGI (A549 NSCLC) [µM],GI50 (T-47D breast) [µM],TGI (T-47D breast) [µM],GI50 (ACHN renal),TGI (ACHN renal) [µM],GI50 (NCI-H460 lung),TGI (NCI-H460 lung) [µM]
Cc1[nH]nc2c1N=C(c1ccccc1F)c1cc(C(N)=O)ccc1N2,0.621 µM,3.54 µM,3.83 µM,> 19.7 µM,5.77 µM,> 25,1.02 µM,> 25,4.11 µM,9.17 µM,1.32 µM,> 16.3,7.56 µM,> 25,2.89,> 15.8,3.3 µM,> 22.9,3.33 µM,> 25
Cc1cc(C(=O)NC(CCC(=O)O)C(=O)O)sc1CCC1CNc2nc(N)[nH]c(=O)c2C1 (stereo unspecified),0.0383 µM and 0.0521 µM,> 100 µM,< 0.018 µM and 0.0234 µM,> 100 µM,< 0.0215 µM and 0.0454 µM,> 100,< 0.0198 µM and 0.0357 µM,> 100,0.049 µM and 0.0557 µM,> 100 µM,0.0383 µM and 0.0937 µM,> 100,0.0437 µM and 0.156 µM,> 100,–,> 100,0.0133 µM and 0.0435 µM,> 100,< 0.0186 µM and 0.0404 µM,> 100
COc1c(-c2ccc(O)c(O)c2)oc2c(O)c(O)cc(O)c2c1=O,–,> 100 µM,–,> 100 µM,–,> 100,–,> 100,–,> 100 µM,–,> 100,–,> 100,–,> 100,–,> 100,–,> 100
O=S1(=O)CS(=O)(=O)OCCO1,30.4 µM,> 78.2 µM and 63.5 µM,33.2 µM,> 92.9 µM and 143 µM,> 77.7 µM,235,> 74.6 µM,85.3,12 µM,> 78.7 µM and 20.9 µM,–,121,> 82.6 µM,186,87.6,557,36.3 µM,56.5,18.1 µM,69.9
CCCCNC(=O)Oc1ccc(/C(=C(/C)Cc2ccc(OC)cc2)c2ccc(OCCN3CCCC3)cc2)cc1,1.75 µM,3.32 µM,1.63 µM,3.5 µM,2.04 µM,4.38,1.55 µM,2.98,1.94 µM,3.59 µM,2.03 µM,4.49,1.95 µM,3.8,1.39,4.37,1.79 µM,3.32,1.81 µM,3.34
Cc1ccn2c(CCc3nnc4cc(C)ccn34)nnc2c1,–,> 100 µM,–,> 100 µM,–,> 100,–,> 100,–,> 100 µM,–,> 100,–,> 100,–,> 100,–,> 100,–,> 100
CN1CCN(Cc2ccc(NC(=O)c3cncc(C#Cc4cncc5nccnc45)c3)cc2C(F)(F)F)CC1,0.956 µM,6 µM,2.18 µM,9.09 µM,3.71 µM,24.1,1.39 µM,7.35,1.55 µM,7.21 µM,0.136 µM,6.88,4.3 µM,11.4,5.61,14.9,1.57 µM,6.48,2.21 µM,8.46
C[C@]1(Cn2ccnn2)C(C(=O)O)N2C(=O)CC2S1(=O)=O (stereo partly specified),> 100 µM,> 100 µM,> 100 µM,> 100 µM,–,–,> 100 µM,> 100,> 100 µM,> 100 µM,> 100 µM,> 100,> 100 µM,> 100,> 100,> 100,> 100 µM,> 100,> 100 µM,> 100
COc1ccc2c(Cl)cc(NC(=O)Nc3c(C)cccc3C)nc2c1,19.8 µM,46.3 µM,5.27 µM,> 100 µM,24.7 µM,> 100,5.72 µM,> 100,64.3 µM,> 100 µM,35.7 µM,> 100,6.1 µM,69.4,22.5,> 100,3.59 µM,24.7,4.02 µM,> 100
COC(=O)C(CBr)CBr,–,13.2 µM,–,10 µM,–,8.83,–,11.5,–,18.1 µM,–,24.3,–,36.3,–,7.22,–,10.1,–,33.1
CC1(C)C(=O)/C=C\C(=O)C(C)(C)C(=O)/C=C\C(=O)C(C)(C)C(=O)/C=C\C(=O)C(C)(C)C(=O)/C=C\C1=O,–,55.8 µM,–,31.2 µM,–,74.5,–,30.8,–,56.3 µM,–,> 72.8,–,> 100,–,> 100,–,> 63.2,–,> 100
C/C(=N\NC(=S)N1CC2CCC(CC2)C1)c1cccc(C)n1,0.464 µM,2.58 µM,–,14.2 µM,0.229 µM,13,–,2.78,–,6.85 µM,–,14.8,0.248 µM,12.9,–,20.6,–,5.33,0.0633 µM,5.53
COC(=O)/C=C1/SC(N2N=C(c3cccs3)CC2c2ccc(F)cc2)=NC1=O (stereo unspecified),1.86 µM,3.39 µM,2.82 µM,10.2 µM,2.59 µM,7.66,2.05 µM,3.82,1.58 µM,3.74 µM,1.92 µM,3.78,4.1 µM,20.6,3.27,8.31,1.89 µM,3.47,2.19 µM,4.93
c1cncc(C2Nc3cccc4cccc(c34)N2)c1,39 µM,> 100 µM,48.7 µM,> 100 µM,20 µM,48.6,16.5 µM,31.6,38.7 µM,> 100 µM,30.8 µM,97.7,38.8 µM,> 100,2.62,9.29,17.3 µM,34.5,> 100 µM,> 100
NC(N)=Nc1nc2ccc([N+](=O)[O-])cc2[nH]1,–,> 100 µM,–,> 100 µM,–,> 100,–,> 100,–,> 100 µM,–,> 100,–,> 100,–,> 100,–,> 100,–,> 100
N#Cc1c(N)nc(N)nc1N[C@H](c1nc2c(F)ccc(Cl)c2c(=O)n1-c1cccnc1)C1CC1,3.83 µM,21 µM,1.69 µM,26.9 µM,15.9 µM,44.3,11.6 µM,27.3,1.6 µM,> 100 µM,14.4 µM,34.5,6.22 µM,21.2,1.19,7.96,3.31 µM,> 100,4.95 µM,> 100
CCCCC(=O)N/N=C/c1c(O)ccc2ccccc12,2.8 µM,> 44.9 µM,–,2.26 µM,2.78 µM,> 100,1.32 µM,> 29.6,2.3 µM,14.2 µM,2.28 µM,> 100,4.47 µM,> 92.1,3.03,> 100,1.38 µM,> 88.6,1.36 µM,> 100
O=[n+]1c2ccccc2n([O-])c2cc(Cl)ccc21,3.5 µM,11.2 µM,3.28 µM,13.1 µM,3.5 µM,15.4,3.37 µM,12.7,6.17 µM,23.8 µM,5.77 µM,18.4,3.17 µM,22.9,1.96,11.7,2.91 µM,9.95,2.05 µM,14.7
Cc1ccc(C2=Nc3c(N)ncnc3NC(c3ccc4c(c3)OCO4)C2)cc1 (stereo unspecified),4.98 µM,21.7 µM,1.44 µM,19.1 µM,13.5 µM,> 100,–,–,4.09 µM,> 100 µM,3.79 µM,15,7.09 µM,52.9,5.72,> 100,7.74 µM,36.7,3.59 µM,12.8
CCc1cc2ncc(CN3CCN(c4ccc(C(=O)NC)nc4)CC3)cc2[nH]c1=O,66.9 µM,> 100 µM,24.2 µM,> 100 µM,> 100 µM,> 100,59.6 µM,> 100,39.2 µM,> 100 µM,> 100 µM,> 100,> 100 µM,> 100,28.2,> 100,78.3 µM,> 100,33.5 µM,> 100
Cc1[nH]c(-c2nc3ccccc3[nH]2)c(C)c1C(=O)NC(C)C1CCCCC1 (stereo unspecified),6.7 µM,19.6 µM,10.4 µM,22.2 µM,16.5 µM,39.5,10.1 µM,24.2,6.95 µM,21.6 µM,10.2 µM,22.8,12.2 µM,34,12.4,39.2,14.4 µM,30.2,14.4 µM,32
O=c1c(NO)c([N+](=O)[O-])cnn1-c1ccccc1,–,28.9 µM,–,11.2 µM,–,7.48,–,6.25,–,10.8 µM,–,23.5,–,36.2,–,3.79,–,15.9,–,13.1
O=C1C(=O)c2ccccc2C(O)=C1CCCc1ccc(C2CCCCCC2)cc1,2.56 µM,> 74.7 µM,0.432 µM,26 µM,1.62 µM,41.7,0.426 µM,13.3,0.718 µM,21.2 µM,0.903 µM,17.2,0.664 µM,17.4,3.46,> 45.8,0.703 µM,> 100,0.361 µM,13.4
CCCCNC(=O)c1cc(NCc2cc(O)ccc2O)ccc1O,4.16 µM,17.1 µM,10.8 µM,23.8 µM,18.1 µM,68.8,18.8 µM,37.5,13.7 µM,27.1 µM,14.4 µM,57.7,21.9 µM,48.2,6.39,39.1,10.8 µM,22.7,47.3 µM,> 100
COc1cc(N2CCN(C(C)C)CC2)ccc1Nc1nc(Nc2cccc(F)c2C(=O)O)c2cc[nH]c2n1,> 25 µM,> 25 µM,> 25 µM,> 25 µM,> 25 µM,> 25,> 25 µM,> 25,> 25 µM,> 25 µM,> 25 µM,> 25,> 25 µM,> 25,> 25,> 25,> 25 µM,> 25,> 25 µM,> 25
Cc1ccc(C2=C(c3ccc(C)cc3)C3(c4ccc(C)cc4)C4C(=O)c5ccccc5C(=O)C4C2(c2ccc(C)cc2)S3=O)cc1 (stereo unspecified),> 100 µM,> 100 µM,> 100 µM,> 100 µM,> 100 µM,> 100,> 100 µM,> 100,> 100 µM,> 100 µM,> 100 µM,> 100,> 100 µM,> 100,72.4,> 100,> 100 µM,> 100,> 100 µM,> 100
COc1cc2ncnc(Nc3ccc4c(cnn4Cc4ccccc4)c3)c2cc1OC,> 15.8 µM,> 25 µM,0.385 µM,> 25 µM,> 17.5 µM,> 25,> 21.3 µM,> 25,> 25 µM,> 25 µM,18.7 µM,> 25,> 17.9 µM,> 25,2.16,> 25,0.642 µM,> 25,> 25 µM,> 25
O=C(O)CCc1c2ccc(=O)c(O)c-2oc2c(O)c(O)ccc12,–,–,–,> 100 µM,–,> 100,–,59.5,–,> 100 µM,–,> 100,–,> 100,–,> 100,–,> 100,–,> 100

# From PubChem BioAssay (NCI)
